# Source: patent US8410155B2, “Arylpropionamide, arylacrylamide, arylpropynamide, or arylmethylurea analogs as factor XIA inhibitors” (Bristol-Myers Squibb Company, priority 2006, dated 2013)
# Counter-ions that a name gives are not always drawn.
# Target: T1, purified human Factor XIa (Homo sapiens, UniProt P03951)
# T1 construct: purchased Haematologic Technologies
# Test: Factor XIa enzyme inhibition assay (chromogenic substrate S-2366)
# Format: biochemical
# Conditions: substrate S-2366, 50 mM HEPES pH 7.4
# Protocol: The effectiveness of compounds of the present invention as inhibitors of the coagulation factors XIa, VIIa, IXa, Xa, XIIa, plasma kallikrein or thrombin, can be determined using a relevant purified serine protease, respectively, and an appropriate synthetic substrate. The rate of hydrolysis of the chromogenic or fluorogenic substrate by the relevant serine protease was measured both in the absence and presence of compounds of the present invention. […] A decrease in the rate of absorbance or fluorescence change in the presence of inhibitor is indicative of enzyme inhibition. Such methods are known to one skilled in the art. The results of this assay are expressed as the inhibitory constant, Ki.
# Values of Ki were determined by allowing the protease to react with the substrate in the presence of the inhibitor. Reactions were allowed to go for periods of 20-180 minutes (depending on the protease) and the velocities (rate of absorbance or fluorescence change versus time) were measured. The following relationships were used to calculate Ki values: (vo−vs)/vs=I/(Ki(1+S/Km)) for a competitive inhibitor with one binding site; or vs/vo=A+((B−A)/1+((IC50/(I)^n))) and Ki=IC50/(1+S/Km) for a competitive inhibitor
# T1 sequence (P03951 388-625 limits assumed): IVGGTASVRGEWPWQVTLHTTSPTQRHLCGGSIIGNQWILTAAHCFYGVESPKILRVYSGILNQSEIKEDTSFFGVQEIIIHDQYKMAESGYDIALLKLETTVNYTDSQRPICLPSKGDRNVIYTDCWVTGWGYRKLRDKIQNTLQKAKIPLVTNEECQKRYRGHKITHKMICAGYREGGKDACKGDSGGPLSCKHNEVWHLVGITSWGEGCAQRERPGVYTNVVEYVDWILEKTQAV
# T1 sequence (P03951 19-387 partner limits assumed): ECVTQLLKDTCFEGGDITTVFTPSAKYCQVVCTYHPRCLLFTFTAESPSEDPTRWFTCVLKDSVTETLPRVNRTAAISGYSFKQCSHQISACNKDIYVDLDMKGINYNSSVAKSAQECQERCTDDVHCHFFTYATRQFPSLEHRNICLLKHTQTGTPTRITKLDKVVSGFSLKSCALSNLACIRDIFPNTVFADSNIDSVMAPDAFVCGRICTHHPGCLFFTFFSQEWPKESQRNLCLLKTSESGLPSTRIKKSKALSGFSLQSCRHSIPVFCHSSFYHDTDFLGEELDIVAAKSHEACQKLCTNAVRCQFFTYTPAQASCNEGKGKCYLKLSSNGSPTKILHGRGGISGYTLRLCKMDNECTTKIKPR
row,SMILES,Ki
1,"COC(=O)Nc1ccc(-c2cncc(CNC(=O)/C=C/c3cc(Cl)ccc3-n3cnnn3)c2)cc1 [Example 5, [4-(5-{[(E)-3-(5-Chloro-2-tetrazol-1-yl-phenyl)-acryloylamino]-methyl}-pyridin-3-yl)-phenyl]-carbamic acid methyl ester, trifluoroacetic acid salt]",283 nM
2,"COC(=O)Nc1ccc(-c2cncc(CNC(=O)CCc3cc(Cl)ccc3-n3cnnn3)c2)cc1 [Example 6, [4-(5-{[3-(5-Chloro-2-tetrazol-1-yl-phenyl)-propionylamino]-methyl}-pyridin-3-yl)-phenyl]-carbamic acid methyl ester, trifluoroacetic acid salt]",1250 nM
3,"COC(=O)Nc1ccc(-c2ccnc(CNC(=O)/C=C/c3cc(Cl)ccc3-n3cnnn3)c2)cc1 [Example 7, [4-(2-{[(E)-3-(5-Chloro-2-tetrazol-1-yl-phenyl)-acryloylamino]-methyl}-pyridin-4-yl)-phenyl]-carbamic acid methyl ester, trifluoroacetic acid salt]",475 nM
4,"COC(=O)Nc1ccc(-c2c[nH]c(=O)c(CNC(=O)/C=C/c3cc(Cl)ccc3-n3cnnn3)c2)cc1 [Example 8, [4-(5-{[(E)-3-(5-Chloro-2-tetrazol-1-yl-phenyl)-acryloylamino]-methyl}-6-oxo-1,6-dihydro-pyridin-3-yl)-phenyl]-carbamic acid methyl ester]",277 nM
5,"COC(=O)Nc1ccc(-c2nc(CN(Cc3ccccc3)C(=O)/C=C/c3cc(Cl)ccc3-n3cnnn3)[nH]c2Cl)cc1 [Example 10, {4-[2-({Benzyl-[(E)-3-(5-chloro-2-tetrazol-1-yl-phenyl)-acryloyl]-amino}-methyl)-5-chloro-1H-imidazol-4-yl]-phenyl}-carbamic acid methyl ester, trifluoroacetic acid salt]",1510 nM

# Stronger by Ki, values ahead:
row,Ki,SMILES
1,27.3 nM,"COC(=O)Nc1ccc(-c2[nH]c(CNC(=O)/C=C/c3cc(Cl)ccc3-n3cnnn3)nc2Cl)cc1 [Example 1, [4-(5-chloro-2-{[(E)-3-(5-chloro-2-tetrazol-1-yl-phenyl)-acryloylamino]-methyl}-1H-imidazol-4-yl)-phenyl]-carbamic acid methyl ester, trifluoroacetic acid salt]"
2,16.8 nM,"COC(=O)Nc1ccc(-c2nc(CNC(=O)CCc3cc(Cl)ccc3-n3cnnn3)[nH]c2Cl)cc1 [Example 2, [4-(5-Chloro-2-{[3-(5-chloro-2-tetrazol-1-yl-phenyl)-propionylamino]-methyl}-1H-imidazol-4-yl)-phenyl]-carbamic acid methyl ester, trifluoroacetic acid salt]"
3,12.1 nM,"O=C(/C=C/c1cc(Cl)ccc1-n1cnnn1)NCc1nc(-c2ccc3c(c2)CCC(=O)N3)c(Cl)[nH]1 [Example 3, (E)-N-[5-Chloro-4-(2-oxo-1,2,3,4-tetrahydro-quinolin-6-yl)-1H-imidazol-2-ylmethyl]-3-(5-chloro-2-tetrazol-1-yl-phenyl)-acrylamide, trifluoroacetic acid salt]"
